According to patent US8952024B2, “Herbicidal pyrimidone derivatives” (E I du Pont de Nemours and Company, priority 2009, dated 2015):

Experiments:
Assay type in all cases: in vivo
[1] = system: Russian thistle (Salsola iberica); assay: Test F combination of compound 2 with bromoxynil, postemergence; details: 15 days, mean of three replicates, scale 0 to 100
Description: Test F evaluated the effect of combining compound 2 with bromoxynil. The test species for this experiment was Russian thistle (Salsola iberica), which was prepared by sowing seeds into a blend of loam soil and sand. Test chemicals were formulated in a non-phytotoxic solvent mixture that included a surfactant and applied postemergence to plants ranging in height from 12 to 20 cm. […] Treatments consisted of Compound 2, bromoxynil, or their combination, using a spray volume of 457 L/ha. Each treatment was replicated three times. Treated plants and untreated controls were maintained in a greenhouse for 15 days, after which time all plants were visually evaluated and compared to the untreated controls. […] Colby's Equation was used to determine the herbicidal effects expected from the mixtures. Colby's Equation (Colby, S.

[2] = system: umbrella sedge (Cyperus difformis); assay: Test B flooded paddy test; details: for Plant response rating, Sedge, Umbrella: Flood (flooded paddy test), 13 to 15 days
Summary of the method: (§1)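 Ratings are visual, 0–100 (100 = complete control), taken versus untreated controls 13 to 15 days after treatment in the greenhouse. Compound went straight into paddy water held 3 cm above soil, applied to 2-leaf-stage plants of four species.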

[3] = system: barnyardgrass (Echinochloa crus-galli); assay: Test B flooded paddy test; details: for Plant response rating, Barnyardgrass: Flood (flooded paddy test), 13 to 15 days
Summary of the method: as §1

rice (Oryza sativa) = assay: Test B flooded paddy test; details: for Plant response rating, Rice: Flood (flooded paddy test), 13 to 15 days
Summary of the method: as §1

[4] = system: ducksalad (Heteranthera limosa); assay: Test B flooded paddy test; details: for Plant response rating, Ducksalad: Flood (flooded paddy test), 13 to 15 days
Summary of the method: as §1

[5] = system: giant foxtail (Setaria faberii); assay: Test A pre-/postemergence plant response
Summary of the method: (§2)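 Greenhouse pots of loam/sand received directed preemergence soil sprays or postemergence sprays (plants 2–10 cm, 1–2 leaf stage), compounds formulated in non-phytotoxic solvent with surfactant. Injury was rated visually versus untreated controls after about ten days on a 0 (no effect) to 100 (complete control) scale.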

[6] = system: morningglory (Ipomoea spp.); assay: Test A pre-/postemergence plant response
Summary of the method: as §2

[7] = system: barnyardgrass (Echinochloa crus-galli); assay: Test A pre-/postemergence plant response
Summary of the method: as §2

[8] = system: wheat (Triticum aestivum); assay: Test A pre-/postemergence plant response
Summary of the method: as §2

corn (Zea mays) = assay: Test A pre-/postemergence plant response
Summary of the method: as §2

[9] = system: velvetleaf (Abutilon theophrasti); assay: Test A pre-/postemergence plant response
Summary of the method: as §2

[10] = system: pigweed (Amaranthus retroflexus); assay: Test A pre-/postemergence plant response
Summary of the method: as §2

[11] = system: large crabgrass (Digitaria sanguinalis); assay: Test A pre-/postemergence plant response
Summary of the method: as §2

[12] = 250 g ai/ha, flooded paddy test, visual rating on 0 to 100 scale (0 no effect, 100 complete control) after 13 to 15 days
[13] = 62 g ai/ha, scale of 0 to 100 where 0 is no effect and 100 is complete control
[14] = 125 g ai/ha, scale 0 to 100, 0 is no effect, 100 is complete control
[15] = Flood, 31 g ai/ha, scale 0 to 100 (0 no effect, 100 complete control)
[16] = Postemergence, 125 g ai/ha, 0 to 100 scale where 0 is no effect and 100 is complete control
[17] = Postemergence, 500 g ai/ha, visual injury, 0 to 100 scale (0 no effect, 100 complete control), approx. ten days
[18] = Preemergence, 125 g ai/ha, 0 to 100 scale, 0 = no effect, 100 = complete control
[19] = Preemergence, 500 g ai/ha, 0 to 100 scale, 0 = no effect, 100 = complete control

For `N#Cc1cc(Br)c(O)c(Br)c1` [bromoxynil, reference compound], the “Russian Thistle Obsd. (observed effect)” value ([1]; Bromoxynil 70 g a.i./ha alone) was 8 and the “Russian Thistle Obsd. (observed effect)” value ([1]; Bromoxynil 140 g a.i./ha alone) was 13.
With `O=C1CCCC(O)=C1C(=O)c1cnc(-c2ccccc2)n(CCC(F)(F)F)c1=O` [Compound 207] the “Plant response rating, Flood, Sedge, Umbrella” value [2, 12] was 70, the “Plant response rating, Sedge, Umbrella” value [2, 13] was 40 and the “Plant response rating, Sedge, Umbrella” value [2, 14] was 60. For the same compound, the “Sedge, Umbrella plant response rating” value [2, 15] was 0, the “Plant response rating, Flood, Barnyardgrass” value [3, 12] was 20 and the “Plant response rating, Barnyardgrass” value [3, 13] was 0. For the same compound, the “Plant response rating, Barnyardgrass” value [3, 14] was 0, the “Barnyardgrass plant response rating” value [3, 15] was 0 and the “Plant response rating, Flood, Rice” value (rice (Oryza sativa); [12]) was 15. For the same compound, the “Plant response rating, Rice” value (rice (Oryza sativa); [13]) was 0, the “Plant response rating, Rice” value (rice (Oryza sativa); [14]) was 15 and the “Rice plant response rating” value (rice (Oryza sativa); [15]) was 0. For the same compound, the “Plant response rating, Flood, Ducksalad” value [4, 12] was 50, the “Plant response rating, Ducksalad” value [4, 13] was 0 and the “Plant response rating, Ducksalad” value [4, 14] was 0. The “Ducksalad plant response rating” value [4, 15] was 0, the “Plant response rating, Foxtail, Giant” value [5, 16] was 60 and the “Foxtail, Giant plant response rating” value [5, 17] was 90. The “Plant response rating, Foxtail, Giant” value [5, 18] was 30, the “Plant response rating, Foxtail, Giant” value [5, 19] was 80 and the “Plant response rating, Morningglory” value [6, 16] was 40. The “Morningglory plant response rating” value [6, 17] was 80, the “Plant response rating, Morningglory” value [6, 18] was 0 and the “Plant response rating, Morningglory” value [6, 19] was 70. The “Plant response rating, Barnyardgrass” value [7, 16] was 60, the “Barnyardgrass plant response rating” value [7, 17] was 90 and the “Plant response rating, Barnyardgrass” value [7, 18] was 10. The “Plant response rating, Barnyardgrass” value [7, 19] was 50, the “Plant response rating, Wheat” value [8, 16] was 0 and the “Wheat plant response rating” value [8, 17] was 0. For the same compound, the “Plant response rating, Wheat” value [8, 18] was 0, the “Plant response rating, Wheat” value [8, 19] was 0 and the “Plant response rating, Corn” value (corn (Zea mays); [16]) was 0. For the same compound, the “Corn plant response rating” value (corn (Zea mays); [17]) was 30, the “Plant response rating, Corn” value (corn (Zea mays); [18]) was 0 and the “Plant response rating, Corn” value (corn (Zea mays); [19]) was 0. The “Plant response rating, Velvetleaf” value [9, 16] was 100, the “Velvetleaf plant response rating” value [9, 17] was 100 and the “Plant response rating, Velvetleaf” value [9, 18] was 70. The “Plant response rating, Velvetleaf” value [9, 19] was 100, the “Plant response rating, Pigweed” value [10, 16] was 100 and the “Pigweed plant response rating” value [10, 17] was 100. The “Plant response rating, Pigweed” value [10, 18] was 80, the “Plant response rating, Pigweed” value [10, 19] was 100 and the “Plant response rating, Crabgrass, Large” value [11, 16] was 60. For the same compound, the “Crabgrass, Large plant response rating” value [11, 17] was 90, the “Plant response rating, Crabgrass, Large” value [11, 18] was 60 and the “Plant response rating, Crabgrass, Large” value [11, 19] was 100.
